Measurements taken from patent US20050234029A1, “Compounds” (priority 2002, published 2005).

Legend:
[1] = target: T1, recombinant GST-ALK5 (residues 198-503) (Homo sapiens, UniProt P36897); assay: Alk5 fluorescence polarization assay; type: binding; conditions: rhodamine green-labelled ligand 1 nM, ALK5 10 nM, read-out: ALK5 receptor modulator activity (IC50)
T1 construct: assays using recombinant GST-ALK5 (residues 198-503)
T1 sequence (P36897 198-503): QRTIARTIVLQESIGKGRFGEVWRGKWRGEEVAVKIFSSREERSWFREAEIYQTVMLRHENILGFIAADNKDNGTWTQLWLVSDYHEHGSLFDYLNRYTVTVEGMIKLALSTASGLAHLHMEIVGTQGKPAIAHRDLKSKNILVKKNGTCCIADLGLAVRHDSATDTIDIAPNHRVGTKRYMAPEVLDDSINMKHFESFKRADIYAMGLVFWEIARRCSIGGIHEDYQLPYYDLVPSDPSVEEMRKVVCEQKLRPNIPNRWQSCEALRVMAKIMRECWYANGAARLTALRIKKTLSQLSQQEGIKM
Procedure: Assay 2 (Alk5 Fluorescence Polarization Assay)
Kinase inhibitor compounds conjugated to fluorophores, can be used as fluorescent ligands to monitor ATP competitive binding of other compounds to a given kinase. The increase in depolarization of plane polarized light, caused by release of the bound ligand into solution, is measured as a polarization/anisotropy value. This protocol details the use of a rhodamine green-labelled ligand for assays using recombinant GST-ALK5 (residues 198-503).
Assay buffer components: 62.5 mM Hepes pH 7.5 (Sigma H-4034), 1 mM DTT (Sigma D-0632), 12.5 mM MgCl2 (Sigma M-9272), 1.25 mM CHAPS (Sigma C-3023). […]
ALK5 was added to assay buffer containing the above components and 1 nM of the rhodamine green-labelled ligand so that the final ALK5 concentration was 10 nM based on active site titration of the enzyme. […] The plates were read immediately on a LJL Acquest fluorescence reader (Molecular Devices, serial number AQ1048) with excitation, emission, and dichroic filters of 485 nm, 530 nm, and 505 nm, respectively. The fluorescence polarization for each well was calculated by the Acquest reader and then imported into curve fitting software for construction of concentration response curves. The normalized response was determined relative to the high controls (1 μl DMSO in column 12, rows A-D) and the low controls (1 μl of control compound in column 12, rows E-H). […]

[2] = tested on: TGF-β signalling (PAI-1 promoter-luciferase in HepG2 cells); assay: Cellular transcriptional assay (PAI-1 promoter luciferase reporter); type: cell-based; conditions: Homo sapiens, PAI-1 promoter firefly luciferase, rhTGFβ-1 1 ng/mL
Procedure: Assay 1 (Cellular Transcriptional Assay)
These plates were placed in a cell incubator.
Columns 11 and 12 were employed as controls.

O=C(NC1CCOCC1)c1ccc(-c2cc(-c3c(-c4ccccn4)nc4ccccn34)ccn2)cc1 [Example 26, 3-[2-(4-((Tetrahydropyran-4-yl)aminocarbonyl)phenyl)-pyridin-4-yl]-2-pyridin-2-yl-imidazo[1,2-a]pyridine]
melting point: 179 °C

CS(=O)(=O)Nc1ccc(-c2cc(-c3c(-c4cccc(Cl)c4)nc4ccccn34)ccn2)cc1 [Example 11, 2-(3-chloro-phenyl)-3-[2-(4-(methanesulfonylamino)phenyl)-pyridin-4-yl]-imidazo[1,2-a]pyridine]
melting point: 60 °C

O=C(c1ccc(-c2cc(-c3c(-c4cccc(F)n4)nc4ccccn34)ccn2)cc1)N1CCOCC1 [Example 33, 2-(6-Fluoro-pyridin-2-yl)-3-{2-[4-((morpholiny-4-yl)carbonyl)phenyl]-pyridin-4-yl}-imidazo[1,2-a]pyridine]
melting point: 191 °C

Cc1cccc(-c2nc3ccccn3c2-c2ccnc(-c3ccc(C#N)cc3)c2)n1 [Example 4]
melting point: 214 °C

Fc1ccc(-c2nc3ccccn3c2-c2ccnc(-c3ccc(CN4CCCC4)cc3)c2)cc1F [Example 19, 2-(3,4-Difluoro-phenyl)-3-[2-(4-(pyrrolidin-1-yl-methyl)phenyl)-pyridin-4-yl]-imidazo[1,2-a]pyridine]
melting point: 155 °C

Cc1cccc(-c2nc3ccc(Cl)cn3c2-c2ccnc(-c3ccc(CN4CCCC4)cc3)c2)n1 [Example 23, 6-Chloro-2-(6-methyl-pyridin-2-yl)-3-[2-(4-(pyrrolidin-1-yl-methyl)phenyl)-pyridin-4-yl]-imidazo[1,2-a]pyridine]
melting point: 134 °C

Cc1cccc(-c2nc3ccccn3c2-c2ccnc(-c3ccc(OC(F)(F)F)cc3)c2)n1 [Example 3, 2-(6-methyl-pyridin-2-yl)-3-[2-(4-trifluoromethoxy-phenyl)-pyridin-4-yl]-imidazo[1,2-a]pyridine]
melting point: 120 °C

c1ccc(-c2nc3ccccn3c2-c2ccnc(-c3ccc(CN4CCOCC4)cc3)c2)nc1 [Example 17, 3-[2-(4-(Morpholin-4-yl-methyl)-phenyl)-pyridin-4-yl]-2-pyridin-2-yl-imidazo[1,2-a]pyridine]
melting point: 80 °C (dec.)

Fc1ccc(-c2nc3ccccn3c2-c2ccnc(-c3ccc(CN4CCOCC4)cc3)c2)cc1Cl [Example 18, 2-(3-Chloro-4-fluoro-phenyl)-3-[2-(4-(morpholin-4-yl-methyl)phenyl)-pyridin-4-yl]-imidazo[1,2-a]pyridine]
melting point: 189 °C

CC(=O)Nc1ccc(-c2cc(-c3c(-c4ccccn4)nc4ccccn34)ccn2)cc1 [Example 9, 3-[2-(4-(Methylcarbonylamino)phenyl)-pyridin-4-yl]-2-pyridin-2-yl-imidazo[1,2-a]pyridine]
melting point: 133 °C

CC(=O)c1ccc(-c2cc(-c3c(-c4ccccn4)nc4ccccn34)ccn2)cc1 [Example 8, 3-[2-(4-(Acetyl)phenyl)-pyridin-4-yl]-2-(pyridin-2-yl)-imidazo[1,2-a]pyridine]
melting point: 214 °C

Cc1ccn2c(-c3ccnc(-c4ccc(CN5CCOCC5)cc4)c3)c(-c3cccc(C)n3)nc2c1 [Example 22, 7-Methyl-2-(6-methyl-pyridin-2-yl)-3-[2-(4-(morpholin-4-yl-methyl)phenyl)-pyridin-4-yl]-imidazo[1,2-a]pyridine]
melting point: 188 °C

Cc1cccc(-c2nc3ccccn3c2-c2ccnc(-c3ccc(S(C)(=O)=O)cc3)c2)n1 [Example 6, 3-[2-(4-Methanesulfonyl-phenyl)-pyridin-4-yl]-2-(6-methyl-pyridin-2-yl)-imidazo[1,2-a]pyridine]
IC50 [1]: 0.011 µM | IC50 [2]: 0.125 µM

COc1ccc(-c2cc(-c3c(-c4cccc(C)n4)nc4ccccn34)ccn2)cc1 [Example 2, 3-[2-(4-methoxy-phenyl)-pyridin-4-yl]-2-(6-methyl-pyridin-2-yl)-imidazo[1,2-a]pyridine]
melting point: 174 °C

Cc1cccc(-c2nc3ccccn3c2-c2ccnc(-c3ccc(C(=O)NC4CCOCC4)cc3)c2)n1 [Example 27, 3-[2-(4-((tetrahydropyran-4-yl)aminocarbonyl)phenyl)-pyridin-4-yl]-2-(6-methyl-pyridin-2-yl)-imidazo[1,2-a]pyridine]
melting point: 128 °C

Cc1cccc(-c2nc3c(C)cccn3c2-c2ccnc(-c3ccc(CN4CCOCC4)cc3)c2)n1 [Example 24, 8-Methyl-2-(6-methyl-pyridin-2-yl)-3-{2-[4-((morpholin-4-yl)methyl)phenyl]-pyridin-4-yl}-imidazo[1,2-a]pyridine]
melting point: 122 °C

Clc1cccc(-c2nc3ccccn3c2-c2ccnc(-c3ccc(OCCN4CCCC4)cc3)c2)c1 [Example 37, 2-(3-Chloro-phenyl)-3-{2-[4-(2-(pyrrolidin-1-yl)ethoxy)phenyl]-pyridin-4-yl}-imidazo[1,2-a]pyridine]
melting point: 298 °C

CC(=O)Nc1ccc(-c2cc(-c3c(-c4cccc(C)n4)nc4ccccn34)ccn2)cc1 [Example 10, 3-[2-(4-(methylcarbonylamino)phenyl)-pyridin-4-yl]-2-(6-methyl-pyridin-2-yl)-imidazo[1,2-a]pyridine]
melting point: 257 °C

Cc1cccc(-c2nc3ccc(Cl)cn3c2-c2ccnc(-c3ccc(CN4CCOCC4)cc3)c2)n1 [Example 21, 6-Chloro-2-(6-methyl-pyridin-2-yl)-3-[2-(4-(morpholin-4-yl-methyl)phenyl)-pyridin-4-yl]-imidazo[1,2-a]pyridine]
melting point: 157 °C

Cc1ccn2c(-c3ccnc(-c4ccc(OCCN5CCCC5)cc4)c3)c(-c3cccc(C)n3)nc2c1 [Example 38, 7-Methyl-2-(6-methyl-pyridin-2-yl)-3-{2-[4-(2-(pyrrolidin-1-yl)ethoxy)phenyl]-pyridin-4-yl}-imidazo[1,2-a]pyridine]
IC50 [1]: 0.015 µM | melting point: 163 °C | IC50 [2]: 0.127 µM

CS(=O)(=O)c1ccc(-c2cc(-c3c(-c4ccccn4)nc4ccccn34)ccn2)cc1 [Example 5, 3-[2-(4-Methanesulfonyl-phenyl)-pyridin-4-yl]-2-pyridin-2-yl-imidazo[1,2-a]pyridine]
melting point: 242 to 244 °C

CCN1CCN(C(=O)c2ccc(-c3cc(-c4c(-c5cccc(C)n5)nc5c(C)cccn45)ccn3)cc2)CC1 [Example 32, 8-Methyl-2-(6-methyl-pyridin-2-yl)-3-{2-[4-((1-ethyl-piperazin-4-yl)carbonyl)phenyl]-pyridin-4-yl}-imidazo[1,2-a]pyridine]
melting point: 212 °C

Fc1ccc(-c2nc3ccccn3c2-c2ccnc(-c3ccc(CN4CCOCC4)cc3)c2)cc1F [Example 20, 2-(3,4-Difluoro-phenyl)-3-[2-(4-(morpholin-1-yl-methyl)phenyl)-pyridin-4-yl]-imidazo[1,2-a]pyridine]
melting point: 205 °C
